We go through two compounds from patent publication US7893055B2, “HIV integrase inhibitors” (priority 2006, dated 2011).

Series [1] addresses T1, HIV-integrase (Human immunodeficiency virus type 1 group M subtype B, UniProt P12497).
T1 construct: Recombinant integrase (0.26 ng) was incubated with the beads
Kind of series: HIV-Integrase Inhibition Activity (SPA strand transfer assay). The series is classed as biochemical. The conditions noted are these: recombinant integrase, SPA beads, P33 labeled target DNA; read-out: Activity (IC50 class, HIV-integrase inhibition). In short, it runs like this: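 Biotinylated substrate DNA (5 pmol) on streptavidin SPA beads was preloaded with 0.26 ng recombinant integrase for 90 min at 37 °C, then washed. Inhibitors and 0.1 fmol 33P-labelled target DNA were added; EDTA (10 mM final) stopped the reaction. Strand-transfer integration was read as bead-associated CPM; IC50 values are grouped into activity bands.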

Series [2] concerns recombinant NL-Rluc virus. The series is described as follows: Inhibition of HIV replication (NL-Rluc virus, luciferase). The series is classed as cell-based. The settings on record: NL-Rluc pseudotype virus; serum condition of tabulated values not stated (10% FBS, 15 mg/ml HSA/10% FBS or 40% human serum/5% FBS); read-out: Activity (EC50 class, inhibition of HIV replication).

On to `Cc1ncc(CNC(=O)c2nc3n(c(=O)c2O)CCOC3(C)C)s1` [Example 85, 3-Hydroxy-9,9-dimethyl-N-((2-methylthiazol-5-yl)methyl)-4-oxo-4,6,7,9-tetrahydropyrimido[2,1-c][1,4]oxazine-2-carboxamide], for which the melting point came to 245 °C. In addition, the IC50 in series [1] was 0.002 to 0.1 µM.
In the case of “Pyrimido[2,1-c][1,4]oxazine-2- carboxamide, N-(benzo[b]thien-3- ylmethyl)-4,6,7,9-tetrahydro-3- hydroxy-9,9-dimethyl-4-oxo- [Example 40]”, the IC50 in series [1] is 0.002 to 0.1 µM. For the same compound, the EC50 in series [2] was in the range of 0.1 to 1 µM.

In general, IC50 refers to the concentration that gives 50% inhibition. By melting point is commonly meant the temperature, or range, at which the solid turns liquid. One may read the EC50 as the concentration that produces a half-maximal response.
